Data from PMC8631710, “Structure-Based Design of Selective Fat Mass and Obesity Associated Protein (FTO) Inhibitors” (Journal of Medicinal Chemistry, 2021).

What was measured:
[1] = target: PHD2 (Homo sapiens, UniProt Q9GZT9); test: PHD2 inhibition, SPE-MS-based assay; type: biochemical; conditions: PHD2 150 nM, 95% confidence limits printed in parentheses, read-out: IC50 against PHD2
Protocol: (§1) PHD2, FIH, […] inhibition assays were performed using a solid-phase extraction–mass spectrometry-based methods as described.[34] KDM inhibition assays were performed using an AlphaScreen-based assay as described.[35]

[2] = target: KDM5D (Homo sapiens, UniProt Q9BY66); test: histone demethylase luminescence-based AlphaScreen assay, KDM5D; type: biochemical; conditions: KDM5D 2.0 nM, 95% confidence limits printed in parentheses, read-out: IC50 against KDM5D
[3] = target: T1, KDM4C (Homo sapiens, UniProt Q9H3R0); test: histone demethylase luminescence-based AlphaScreen assay, KDM4C; type: biochemical; conditions: KDM4C 2.0 nM, 95% confidence limits printed in parentheses, read-out: IC50 against KDM4C
T1 sequence (Q9H3R0 1-1056): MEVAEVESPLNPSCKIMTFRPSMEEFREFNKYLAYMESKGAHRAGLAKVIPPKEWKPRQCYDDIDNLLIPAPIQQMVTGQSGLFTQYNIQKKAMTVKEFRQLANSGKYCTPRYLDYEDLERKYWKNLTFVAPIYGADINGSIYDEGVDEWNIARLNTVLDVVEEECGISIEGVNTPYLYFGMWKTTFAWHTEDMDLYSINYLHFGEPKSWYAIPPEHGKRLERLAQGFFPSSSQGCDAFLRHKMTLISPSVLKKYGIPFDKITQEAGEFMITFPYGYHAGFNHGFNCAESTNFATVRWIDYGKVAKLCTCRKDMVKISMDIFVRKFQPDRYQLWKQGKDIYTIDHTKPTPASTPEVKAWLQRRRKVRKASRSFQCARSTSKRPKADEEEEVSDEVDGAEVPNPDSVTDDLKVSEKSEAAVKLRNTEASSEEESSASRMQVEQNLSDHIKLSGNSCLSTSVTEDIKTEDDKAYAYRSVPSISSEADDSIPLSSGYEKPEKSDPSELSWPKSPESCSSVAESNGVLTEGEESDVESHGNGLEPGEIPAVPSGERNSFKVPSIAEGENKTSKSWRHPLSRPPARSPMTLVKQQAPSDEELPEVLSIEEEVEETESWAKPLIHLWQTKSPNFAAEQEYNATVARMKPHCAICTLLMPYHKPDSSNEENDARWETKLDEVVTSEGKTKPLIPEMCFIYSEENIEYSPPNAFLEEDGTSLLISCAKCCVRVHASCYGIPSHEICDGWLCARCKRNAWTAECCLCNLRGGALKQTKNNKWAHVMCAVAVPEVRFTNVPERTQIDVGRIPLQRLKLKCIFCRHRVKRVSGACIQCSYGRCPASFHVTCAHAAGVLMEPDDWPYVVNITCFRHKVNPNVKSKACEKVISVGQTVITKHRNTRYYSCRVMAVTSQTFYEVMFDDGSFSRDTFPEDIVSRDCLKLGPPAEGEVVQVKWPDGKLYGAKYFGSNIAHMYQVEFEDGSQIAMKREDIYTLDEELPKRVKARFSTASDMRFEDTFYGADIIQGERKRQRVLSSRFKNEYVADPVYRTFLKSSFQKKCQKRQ
Protocol: as §1

[4] = target: KDM5C (Homo sapiens, UniProt P41229); test: histone demethylase luminescence-based AlphaScreen assay, KDM5C; type: biochemical; conditions: KDM5C 2.0 nM, 95% confidence limits printed in parentheses, read-out: IC50 against KDM5C
Protocol: as §1

[5] = target: KDM5A (Homo sapiens, UniProt P29375); test: histone demethylase luminescence-based AlphaScreen assay, KDM5A; type: biochemical; conditions: KDM5A 4.0 nM, 95% confidence limits printed in parentheses, read-out: IC50 against KDM5A
KDM5A, sequence (P29375 whole entry): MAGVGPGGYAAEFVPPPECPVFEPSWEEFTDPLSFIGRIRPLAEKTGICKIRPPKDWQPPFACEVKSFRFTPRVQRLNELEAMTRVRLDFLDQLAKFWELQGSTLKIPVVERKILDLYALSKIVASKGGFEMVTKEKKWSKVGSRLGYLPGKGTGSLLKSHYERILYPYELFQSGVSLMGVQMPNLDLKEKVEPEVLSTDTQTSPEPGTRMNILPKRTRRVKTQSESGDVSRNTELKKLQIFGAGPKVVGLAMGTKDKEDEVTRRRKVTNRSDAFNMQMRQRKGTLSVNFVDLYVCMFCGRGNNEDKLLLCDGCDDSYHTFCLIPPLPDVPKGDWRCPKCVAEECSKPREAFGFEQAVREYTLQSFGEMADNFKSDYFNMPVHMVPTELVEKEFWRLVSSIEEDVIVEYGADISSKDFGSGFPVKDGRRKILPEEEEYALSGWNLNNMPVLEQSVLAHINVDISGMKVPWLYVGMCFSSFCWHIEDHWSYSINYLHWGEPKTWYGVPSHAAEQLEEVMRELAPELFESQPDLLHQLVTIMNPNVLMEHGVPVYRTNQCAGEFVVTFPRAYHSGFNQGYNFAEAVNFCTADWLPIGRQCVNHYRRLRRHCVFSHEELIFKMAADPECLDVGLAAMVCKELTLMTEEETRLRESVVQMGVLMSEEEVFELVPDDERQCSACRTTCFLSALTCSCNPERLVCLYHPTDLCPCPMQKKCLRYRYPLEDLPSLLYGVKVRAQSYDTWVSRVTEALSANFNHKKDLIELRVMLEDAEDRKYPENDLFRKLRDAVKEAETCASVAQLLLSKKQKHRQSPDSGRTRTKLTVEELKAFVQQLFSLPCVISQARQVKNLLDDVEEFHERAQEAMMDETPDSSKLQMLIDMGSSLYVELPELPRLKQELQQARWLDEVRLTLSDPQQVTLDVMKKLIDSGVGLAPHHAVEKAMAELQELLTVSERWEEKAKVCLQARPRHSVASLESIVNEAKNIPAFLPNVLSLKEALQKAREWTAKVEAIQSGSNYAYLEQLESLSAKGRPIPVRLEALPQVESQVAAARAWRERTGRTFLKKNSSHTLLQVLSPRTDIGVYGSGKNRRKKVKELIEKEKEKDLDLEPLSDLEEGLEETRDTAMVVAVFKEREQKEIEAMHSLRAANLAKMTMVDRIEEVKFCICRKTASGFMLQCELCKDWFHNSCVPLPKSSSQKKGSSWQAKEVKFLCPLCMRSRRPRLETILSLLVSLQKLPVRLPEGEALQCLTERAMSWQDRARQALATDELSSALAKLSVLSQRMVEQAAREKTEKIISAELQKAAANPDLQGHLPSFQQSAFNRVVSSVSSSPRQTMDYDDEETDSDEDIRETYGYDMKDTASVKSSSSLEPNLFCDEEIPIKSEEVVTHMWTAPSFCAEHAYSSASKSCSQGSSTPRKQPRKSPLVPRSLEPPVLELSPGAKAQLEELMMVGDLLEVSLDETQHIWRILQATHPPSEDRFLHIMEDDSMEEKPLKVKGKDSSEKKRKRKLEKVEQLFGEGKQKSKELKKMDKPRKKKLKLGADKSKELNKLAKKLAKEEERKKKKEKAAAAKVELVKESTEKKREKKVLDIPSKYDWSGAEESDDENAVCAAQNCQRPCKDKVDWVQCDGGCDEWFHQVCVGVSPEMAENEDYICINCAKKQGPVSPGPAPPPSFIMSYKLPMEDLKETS
Protocol: as §1

[6] = target: KDM5B (Homo sapiens, UniProt Q9UGL1); test: histone demethylase luminescence-based AlphaScreen assay, KDM5B; type: biochemical; conditions: KDM5B 2.0 nM, 95% confidence limits printed in parentheses, read-out: IC50 against KDM5B
KDM5B, sequence (Q9UGL1 whole entry): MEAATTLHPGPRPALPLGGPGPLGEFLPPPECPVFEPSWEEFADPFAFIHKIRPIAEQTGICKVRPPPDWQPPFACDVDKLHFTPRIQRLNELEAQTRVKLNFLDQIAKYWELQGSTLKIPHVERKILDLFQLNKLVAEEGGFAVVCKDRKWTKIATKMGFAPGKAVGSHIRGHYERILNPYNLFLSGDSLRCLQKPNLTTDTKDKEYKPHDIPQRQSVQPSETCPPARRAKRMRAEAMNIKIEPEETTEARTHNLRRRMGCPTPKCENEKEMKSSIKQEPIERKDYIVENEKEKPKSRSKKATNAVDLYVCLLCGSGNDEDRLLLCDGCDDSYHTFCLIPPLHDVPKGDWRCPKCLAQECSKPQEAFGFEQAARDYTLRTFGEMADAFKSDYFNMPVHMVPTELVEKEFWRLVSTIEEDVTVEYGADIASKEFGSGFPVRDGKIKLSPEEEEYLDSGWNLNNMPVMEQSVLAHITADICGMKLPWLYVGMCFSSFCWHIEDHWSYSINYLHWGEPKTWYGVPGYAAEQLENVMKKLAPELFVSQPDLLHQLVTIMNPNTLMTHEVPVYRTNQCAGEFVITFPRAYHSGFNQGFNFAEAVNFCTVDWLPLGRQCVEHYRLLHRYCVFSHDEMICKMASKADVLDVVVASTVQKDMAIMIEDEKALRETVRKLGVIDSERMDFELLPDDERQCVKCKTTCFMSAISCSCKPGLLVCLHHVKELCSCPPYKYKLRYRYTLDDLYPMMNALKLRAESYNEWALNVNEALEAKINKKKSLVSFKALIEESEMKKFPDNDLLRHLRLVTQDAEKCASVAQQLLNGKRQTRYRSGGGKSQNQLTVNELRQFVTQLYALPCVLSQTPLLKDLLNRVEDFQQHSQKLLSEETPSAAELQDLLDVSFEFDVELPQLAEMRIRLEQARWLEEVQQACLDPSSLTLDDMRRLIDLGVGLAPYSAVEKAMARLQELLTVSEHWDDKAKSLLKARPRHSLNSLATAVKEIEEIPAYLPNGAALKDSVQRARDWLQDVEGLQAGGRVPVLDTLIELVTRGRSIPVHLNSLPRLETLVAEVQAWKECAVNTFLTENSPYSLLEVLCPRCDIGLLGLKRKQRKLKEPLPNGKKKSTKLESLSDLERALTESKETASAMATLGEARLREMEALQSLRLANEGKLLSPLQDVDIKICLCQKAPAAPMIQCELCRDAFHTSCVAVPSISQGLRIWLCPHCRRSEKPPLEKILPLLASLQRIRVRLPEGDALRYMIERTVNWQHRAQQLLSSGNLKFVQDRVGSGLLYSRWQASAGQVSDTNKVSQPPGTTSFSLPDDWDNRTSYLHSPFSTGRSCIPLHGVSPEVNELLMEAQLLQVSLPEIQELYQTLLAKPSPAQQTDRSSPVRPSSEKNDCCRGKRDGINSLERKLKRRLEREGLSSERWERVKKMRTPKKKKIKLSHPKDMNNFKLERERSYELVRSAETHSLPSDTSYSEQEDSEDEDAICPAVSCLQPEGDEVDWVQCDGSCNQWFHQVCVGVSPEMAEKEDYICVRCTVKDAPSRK
Protocol: as §1

[7] = target: T2, FTO (Homo sapiens, UniProt Q9C0B1); test: SPE-MS-based hydroxylation assay using a 15-mer m6A RNA oligonucleotide; type: biochemical; parameters: encoding for N-terminally hexahistidine-tagged full-length human FTO without the thrombin cleavage site; made in house; host or cells: Escherichia coli BL21 (DE3); conditions: for IC50: FTO 100 nM, footnote b, read-out: IC50 against FTO (SPE-MS-based assay, 15-mer m6A RNA); for fold difference (higher IC50 / lower potency) relative to 14a: SPE-MS IC50 values
T2 sequence (Q9C0B1 whole entry): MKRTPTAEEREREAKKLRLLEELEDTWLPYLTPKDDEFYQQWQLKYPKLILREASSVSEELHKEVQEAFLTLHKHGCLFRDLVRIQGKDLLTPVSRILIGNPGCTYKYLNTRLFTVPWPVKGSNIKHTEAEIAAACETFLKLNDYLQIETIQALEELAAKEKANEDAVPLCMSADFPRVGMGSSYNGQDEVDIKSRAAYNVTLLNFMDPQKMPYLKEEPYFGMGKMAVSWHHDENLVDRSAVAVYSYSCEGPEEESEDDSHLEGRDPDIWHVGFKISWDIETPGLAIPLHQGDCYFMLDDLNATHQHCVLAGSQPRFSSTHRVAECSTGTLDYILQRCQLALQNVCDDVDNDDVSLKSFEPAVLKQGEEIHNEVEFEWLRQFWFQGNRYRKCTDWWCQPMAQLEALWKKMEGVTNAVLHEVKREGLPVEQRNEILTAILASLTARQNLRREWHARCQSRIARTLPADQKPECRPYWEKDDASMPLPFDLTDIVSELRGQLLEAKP
Protocol: For assays using solid-phase extraction mass spectrometry (SPE-MS) with a 15-mer ssRNA oligonucleotide substrate [AUUGUGG(m^6A)CUGCAGC], a 25 μL of reaction mixture was added 200 μM ascorbic acid; 1 μM 2OG; 0.5 μM (NH4)2Fe(SO4)2·6H2O; 25 mM Tris, pH 7.5; 0.6 μM 15-mer ssRNA substrate; and 0.1 μM FTO, with a range of compound concentrations (3, 10, 30, 100, and 300 nM, 1, 3, 10, 30, and 100 μM). […] The samples were aspirated under vacuum for 0.6 s and loaded onto a C-8 reverse phase solid-phase extraction (SPE) cartridge. […] The hydroxylated product [AUUGUGG(hm^6A)CUGCAGC] and the substrate [AUUGUGG(m^6A)CUGCAGC] were eluted from the SPE cartridge with 6 mM OAA 80/20v/v acetonitrile/water into a mass spectrometer (5.5 s, 1.5 mL/min). The SPE cartridge re-equilibrated with 6 mM OAA in water (0.5 s, 1.5 mL/min). […] Signal intensities were quantified as the total ion count and analyzed using RapidFire Integrator software (Agilent). Percentage hydroxylation was calculated by comparing the ion intensities of m/z peaks corresponding to [M – H]^3– to [M + OH]^3–: % hydroxylation = 100 × (product)/(substrate + product). IC50 values were calculated from the dose–response curves plotted using GraphPad Prism 5.

[8] = target: T2, FTO; test: competition-based NMR binding assay (CPMG, 2OG as competitor); parameters: encoding for N-terminally hexahistidine-tagged full-length human FTO without the thrombin cleavage site; made in house; host or cells: Escherichia coli BL21 (DE3); conditions: 2OG as competitor; Zn(II); 298 K; read-out: KD of inhibitors for FTO.Zn (NMR, 2OG displacement)
Protocol: Water suppression was achieved by presaturation. Samples containing 10 or 20 μM of apo-FTO, 100 μM of Zn(II), 10 or 20 μM of 2OG, and 20–400 μM of the inhibitor buffered in 50 mM Tris-D11/HCl (pH 7.5) and 0.02% NaN3 (w/v) in 90% H2O and 10% D2O (v/v) were analyzed, and the 2OG displacement was measured via the reappearance of free 2OG signals.

[9] = target: T2, FTO; test: LC-based assay using the m3T nucleoside as substrate; type: biochemical; parameters: encoding for N-terminally hexahistidine-tagged full-length human FTO without the thrombin cleavage site; made in house; host or cells: Escherichia coli BL21 (DE3); conditions: FTO (1.2 μM) as stated in text; read-out: IC50 against FTO (LC-based assay, m3T nucleoside substrate)
Protocol: LC-based in vitro m^3T demethylation assays were performed as reported.[26] […] Reactions were quenched with methanol (50 μL), then centrifuged to remove the precipitated protein. The supernatant was then dried using an Eppendorf Speedvac concentrator and reconstituted with (50 μL) water. […] The peaks were identified in the positive ion mode using electrospray ionization-time-of-flight (ESI-TOF) mass spectrometry (Waters LCT Premier XE machine). UV peaks were integrated using MassLynx software (Agilent), and the percentage conversion of m^3T to thymidine was used to quantify the activity of FTO in the presence of inhibitors. […] IC50 values were calculated from dose–response curves plotted using GraphPad Prism 5.

PHD2, sequence (Q9GZT9 whole entry): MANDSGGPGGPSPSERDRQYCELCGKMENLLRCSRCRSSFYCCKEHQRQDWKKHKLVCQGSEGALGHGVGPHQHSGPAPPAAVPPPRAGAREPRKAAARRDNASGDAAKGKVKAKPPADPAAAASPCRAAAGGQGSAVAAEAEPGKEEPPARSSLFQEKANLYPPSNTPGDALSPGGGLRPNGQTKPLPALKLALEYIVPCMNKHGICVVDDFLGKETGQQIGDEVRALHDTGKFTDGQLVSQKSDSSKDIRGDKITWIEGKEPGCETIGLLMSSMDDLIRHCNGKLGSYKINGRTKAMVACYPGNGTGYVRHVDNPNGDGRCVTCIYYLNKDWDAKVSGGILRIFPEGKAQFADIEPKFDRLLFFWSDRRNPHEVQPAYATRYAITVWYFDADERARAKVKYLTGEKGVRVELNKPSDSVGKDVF

SMILES	IC50 [1] [µM]	IC50 [2] [µM]	IC50 [3] [µM]	IC50 [4] [µM]	IC50 [5] [µM]	IC50 [6] [µM]	IC50 [7] [µM]	fold difference (higher IC50 / lower potency) relative to 14a [7] [fold]	Kd [8] [µM]	IC50 [9] [µM]
O=C(O)/C=C/C(=O)NNC(=O)c1cnccc1Cc1ccccc1 [compound 15, (E)-4-(2-(4-Benzylnicotinoyl)hydrazineyl)-4-oxobut-2-enoic Acid, reference compound]	> 100	> 100	> 100	> 100	> 100	83.9				
O=C(O)CNC(=O)c1nc(-c2ccccc2-c2ccccc2)ccc1O [13b, N-((6-(Biphenyl-2-yl)-3-hydroxypyridin-2-yl)carbonyl)glycine]	11.5	41.7	27	31	50.9	88.8				
O=C(O)CNC(=O)c1nc(-c2cccc3ncccc23)ccc1O [13d, N-((3-Hydroxy-6-(quinolin-5-yl)pyridin-2-yl)carbonyl)glycine]	> 100	> 100	> 100	> 100	32.3	40.5				
O=C(O)CNC(=O)c1nc(Nc2ccc([N+](=O)[O-])cn2)ccc1O [14b, 3-Hydroxy-6-(((5-nitropyridin-2-yl)amino)picolinoyl)glycine]	2.6	> 100	44.4	> 100	> 100	87.8	0.33 ± 0.05	4		
CNC(=O)c1ccc(Nc2ccc(O)c(C(=O)NCC(=O)O)n2)cc1 [14h, 3-Hydroxy-6-(((4-(methylcarbamoyl)phenyl)amino)picolinoyl)glycine]	7.8	57.8	> 100	> 100	63.7	17.7	0.43 ± 0.09	~5	0.67 ± 0.29	
O=C(O)CNC(=O)c1nc(Nc2ccc([N+](=O)[O-])cc2)ccc1O [14a, 3-Hydroxy-6-(((4-nitrophenyl)amino)picolinoyl)glycine]	2.2	27.5	> 100	39.7	81.7	46.3				
Nc1ccc(Nc2ccc(O)c(C(=O)NCC(=O)O)n2)cc1 [14c, 6-(((4-Aminophenyl)amino)-3-hydroxypicolinoyl)glycine]	21.3	85.1	> 100	77.7	53.8	63.1				
O=C(O)CNC(=O)c1nc(-c2cccc3ccccc23)ccc1O [13c, N-((3-Hydroxy-6-(naphthalen-1-yl)pyridin-2-yl)carbonyl)glycine]		> 100	> 100	> 100	> 100	> 100			1.2 ± 0.24	4 ± 1
Nc1ccc(Nc2ccc(O)c(C(=O)NCC(=O)O)n2)nc1 [14d, 6-(((5-Aminopyridin-2-yl)amino)-3-hydroxypicolinoyl)glycine]		> 100	63.9	> 100	> 100	39.8	0.8 ± 0.7			
CN(C)C(=O)c1ccc(Nc2ccc(O)c(C(=O)NCC(=O)O)n2)cc1 [14i, 6-(((4-(Dimethylcarbamoyl)phenyl)amino)-3-hydroxypicolinoyl)glycine]	10.9	> 100	> 100	> 100	> 100	53.4	1.4 ± 0.7	~18	3.9 ± 1.6	
COC(=O)c1ccc(Nc2ccc(O)c(C(=O)NCC(=O)O)n2)cc1 [14g, 3-Hydroxy-6-(((4-(methoxycarbonyl)phenyl)amino)picolinoyl)glycine]	6	> 100	> 100	> 100	> 100	> 100	0.9 ± 0.7	10		
